Results published in patent US8609836B2, “4-aryl-2-anilino-pyrimidines” (Janssen Pharmaceutica NV, priority 2008, dated 2013).
pIC50: −log10 of the molar value.

Assays:
AuroraB (h) = AuroraB (h) (Homo sapiens, UniProt Q96GD4); experiment: Aurora-B human kinase inhibition, SPA; assay type: biochemical; details: read-out: AuroraB pIC50 (converted)
Summary of the method: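 AuroraB (0.5 μg/ml) phosphorylates 3 μM biotin-peptide using 0.5 μM ATP spiked with 33P-ATP in Hepes pH 7.5 with 3 mM MgCl2 and MnCl2, for 60 min at room temperature. EDTA stop solution carries streptavidin scintillant beads, and the captured radiolabel is imaged.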

PLK2 (h) = PLK2 (h) (Homo sapiens, UniProt Q9NYY3); experiment: PLK2 human kinase inhibition, SPA; assay type: biochemical; details: read-out: PLK2 pIC50 (converted)
Sequence of PLK2 (h) (Q9NYY3 whole entry): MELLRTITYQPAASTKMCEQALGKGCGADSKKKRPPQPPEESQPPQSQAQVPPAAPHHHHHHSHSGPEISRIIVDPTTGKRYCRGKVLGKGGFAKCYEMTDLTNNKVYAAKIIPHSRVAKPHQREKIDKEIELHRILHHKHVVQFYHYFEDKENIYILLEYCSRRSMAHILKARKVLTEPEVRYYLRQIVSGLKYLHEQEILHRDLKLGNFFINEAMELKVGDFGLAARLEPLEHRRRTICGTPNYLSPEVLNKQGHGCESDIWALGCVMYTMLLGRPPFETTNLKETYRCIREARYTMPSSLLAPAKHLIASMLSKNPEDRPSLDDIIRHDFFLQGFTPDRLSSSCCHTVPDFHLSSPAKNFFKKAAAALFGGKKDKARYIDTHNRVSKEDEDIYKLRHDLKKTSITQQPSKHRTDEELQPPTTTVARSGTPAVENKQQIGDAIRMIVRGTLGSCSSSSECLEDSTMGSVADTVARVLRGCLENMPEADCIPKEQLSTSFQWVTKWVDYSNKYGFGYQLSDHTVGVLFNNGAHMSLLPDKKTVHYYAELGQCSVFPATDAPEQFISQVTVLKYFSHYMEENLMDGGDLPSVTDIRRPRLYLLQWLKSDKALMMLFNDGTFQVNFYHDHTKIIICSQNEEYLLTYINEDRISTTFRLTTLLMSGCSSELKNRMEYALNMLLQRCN
Summary of the method: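 33P incorporation into a biotinylated peptide (2 μM) was captured on streptavidin PVT beads and imaged on Leadseeker. Enzyme at 30 μg/ml, ATP 0.1 μM with 2 nM [γ-33P]ATP, Hepes pH 8.0 with MnCl2 and DTT. Incubation was 20 min at room temperature.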

CDK1/CyclinB (h) = CDK1/CyclinB (h) (Homo sapiens, UniProt P06493); experiment: CDK1/CyclinB human kinase inhibition, Invitrogen's FRET assay (Z'lyte); assay type: biochemical; details: read-out: CDK1 pIC50 (converted)
Sequence of CDK1/CyclinB (h) (P06493 whole entry): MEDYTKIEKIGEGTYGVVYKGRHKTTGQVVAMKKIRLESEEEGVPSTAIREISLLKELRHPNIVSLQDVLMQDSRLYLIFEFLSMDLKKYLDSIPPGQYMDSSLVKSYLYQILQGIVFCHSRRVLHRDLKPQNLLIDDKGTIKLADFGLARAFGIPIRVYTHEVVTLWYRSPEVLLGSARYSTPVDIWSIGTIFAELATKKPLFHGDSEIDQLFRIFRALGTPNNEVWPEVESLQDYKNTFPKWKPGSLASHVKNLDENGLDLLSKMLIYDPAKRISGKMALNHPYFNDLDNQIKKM
Sequence of CDK1/CyclinB (h) (P14635 whole entry partner): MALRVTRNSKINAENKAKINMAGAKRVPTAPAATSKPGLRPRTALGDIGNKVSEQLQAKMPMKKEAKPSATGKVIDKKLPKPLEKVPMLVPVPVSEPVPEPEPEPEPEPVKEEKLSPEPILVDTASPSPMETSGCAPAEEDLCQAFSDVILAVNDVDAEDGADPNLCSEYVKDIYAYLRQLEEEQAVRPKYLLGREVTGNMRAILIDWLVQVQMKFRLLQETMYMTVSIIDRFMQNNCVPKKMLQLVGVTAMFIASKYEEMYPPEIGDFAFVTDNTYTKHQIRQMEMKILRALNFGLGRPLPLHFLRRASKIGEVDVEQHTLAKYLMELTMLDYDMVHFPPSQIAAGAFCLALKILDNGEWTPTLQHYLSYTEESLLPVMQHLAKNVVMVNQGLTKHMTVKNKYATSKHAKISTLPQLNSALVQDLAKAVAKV
Summary of the method: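 Read-out is the 460 nm/538 nm emission ratio (390 nm excitation) after a 60 min protease development step. Before that, 10 μM ATP and 2 μM Z'lyte Ser/Thr peptide 12 react 60 min at room temperature with 0.2 μg/ml human CDK1/CyclinB in Hepes pH 7.5 containing MgCl2, EGTA and Brij-35.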

CDK4/CyclinD1 (h) = CDK4/CyclinD1 (h) (Homo sapiens, UniProt P11802); experiment: CDK4/CyclinD1 human kinase inhibition, SPA with GST-pRb substrate; assay type: biochemical; details: read-out: CDK4 pIC50 (converted)
Sequence of CDK4/CyclinD1 (h) (P11802 whole entry): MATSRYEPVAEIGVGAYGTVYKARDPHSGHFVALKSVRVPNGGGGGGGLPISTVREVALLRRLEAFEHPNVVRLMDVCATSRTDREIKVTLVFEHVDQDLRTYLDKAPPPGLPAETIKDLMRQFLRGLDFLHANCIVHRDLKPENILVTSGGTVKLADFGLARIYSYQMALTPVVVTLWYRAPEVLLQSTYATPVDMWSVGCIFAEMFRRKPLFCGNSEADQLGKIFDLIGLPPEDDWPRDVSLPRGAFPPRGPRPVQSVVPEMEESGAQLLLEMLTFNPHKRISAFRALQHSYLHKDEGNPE
Sequence of CDK4/CyclinD1 (h) (P24385 whole entry partner): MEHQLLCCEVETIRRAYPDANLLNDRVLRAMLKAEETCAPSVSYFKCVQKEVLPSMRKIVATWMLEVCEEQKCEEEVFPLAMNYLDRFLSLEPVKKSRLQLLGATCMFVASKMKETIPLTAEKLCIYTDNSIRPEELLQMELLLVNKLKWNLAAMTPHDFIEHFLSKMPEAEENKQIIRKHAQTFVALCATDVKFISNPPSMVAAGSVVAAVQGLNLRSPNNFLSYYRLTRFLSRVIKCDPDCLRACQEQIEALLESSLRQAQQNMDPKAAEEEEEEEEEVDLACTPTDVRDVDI
Summary of the method: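 Scintillation proximity format: after EDTA/Triton stop containing glutathione SPA beads, 33P incorporation was counted. The reaction ran 60 min at room temperature in Hepes pH 7.5 with NaF, MgCl2, DTT, using 2.5 μg/ml human CDK4/CyclinD1, 40 μg/ml GST-pRb substrate and 2 nM [γ-33P]ATP.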

H1299 = experiment: Cellular proliferation assay (Alamar blue), H1299; assay type: cell-based; details: Homo sapiens, NCI-H1299; 10% FCS; 72 hours with compound; Alamar blue 4 h
Summary of the method: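 This proliferation assay on NCI-H1299 cells used an initial 24-hour compound-free incubation after seeding, followed by 72 hours of compound treatment with 10% FCS serum at 37° C. and 5% (v/v) CO2. Viable cells were quantified by a 4 h Alamar blue incubation and fluorescent plate reading at 544 nm/590 nm, and effects were expressed relative to control cells.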

MDA-MB-231 = experiment: Cellular proliferation assay (Alamar blue), MDA-MB-231; assay type: cell-based; details: Homo sapiens, 10% FCS, 72 hours with compound, Alamar blue 24 h, read-out: MDA/MB231 (cellular proliferation assay, Table 4) (converted)
Summary of the method: (§1)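 Growth inhibition measured after 72 h incubation with compound, following 24 h pre-culture at 37° C, 5% CO2 with 10% FCS. Resazurin-based read-out at 544/590 nm after 4 h (HCT-116), 6 h (U87-MG) or 24 h (A2780, MDA-MB-231); results relative to control.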

U87-MG = experiment: Cellular proliferation assay (Alamar blue), U87-MG; assay type: cell-based; details: Homo sapiens, U-87 MG; 10% FCS; 72 hours with compound; Alamar blue 6 h; read-out: U87-MG (cellular proliferation assay, Table 4) (converted)
Summary of the method: as §1

HCT-116 = experiment: Cellular proliferation assay (Alamar blue), HCT-116; assay type: cell-based; details: Homo sapiens, 10% FCS, 72 hours with compound, Alamar blue 4 h
Summary of the method: as §1

A2780 = experiment: Cellular proliferation assay (Alamar blue), A2780; assay type: cell-based; details: Homo sapiens, 10% FCS, 72 hours with compound, Alamar blue 24 h, read-out: A2780 (cellular proliferation assay, Table 4) (converted)
Summary of the method: as §1

PLK3 (h) = PLK3 (h) (Homo sapiens, UniProt Q9H4B4); experiment: PLK3 human kinase inhibition, SPA; assay type: biochemical; details: read-out: PLK3 pIC50 (converted)
Sequence of PLK3 (h) (Q9H4B4 whole entry): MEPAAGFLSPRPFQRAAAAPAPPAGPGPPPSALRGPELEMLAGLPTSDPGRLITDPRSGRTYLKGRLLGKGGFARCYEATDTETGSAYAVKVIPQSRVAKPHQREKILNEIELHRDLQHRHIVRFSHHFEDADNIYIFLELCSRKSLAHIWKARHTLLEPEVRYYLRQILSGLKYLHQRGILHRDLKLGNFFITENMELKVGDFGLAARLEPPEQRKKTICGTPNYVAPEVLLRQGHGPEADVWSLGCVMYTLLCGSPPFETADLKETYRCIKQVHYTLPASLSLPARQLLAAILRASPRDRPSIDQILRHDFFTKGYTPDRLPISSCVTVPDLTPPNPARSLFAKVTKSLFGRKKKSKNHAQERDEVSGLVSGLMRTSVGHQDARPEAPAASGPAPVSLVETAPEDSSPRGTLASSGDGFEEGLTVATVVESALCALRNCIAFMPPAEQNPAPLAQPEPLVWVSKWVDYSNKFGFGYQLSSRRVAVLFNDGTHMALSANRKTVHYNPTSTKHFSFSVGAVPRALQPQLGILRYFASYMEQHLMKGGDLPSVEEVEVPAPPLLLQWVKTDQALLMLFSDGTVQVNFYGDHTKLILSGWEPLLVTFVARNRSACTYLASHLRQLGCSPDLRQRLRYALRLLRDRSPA
Summary of the method: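 Radiometric scintillation proximity format at pH 8.0 (Hepes, MnCl2, DTT). The 2 μM biotin-peptide substrate is phosphorylated by PLK3 (h) (30 μg/ml) using 0.1 μM ATP traced with 33P, for 20 min at room temperature. EDTA stop; phosphopeptide captured on streptavidin beads and imaged.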

Sequence of AuroraB (h) (Q96GD4 whole entry): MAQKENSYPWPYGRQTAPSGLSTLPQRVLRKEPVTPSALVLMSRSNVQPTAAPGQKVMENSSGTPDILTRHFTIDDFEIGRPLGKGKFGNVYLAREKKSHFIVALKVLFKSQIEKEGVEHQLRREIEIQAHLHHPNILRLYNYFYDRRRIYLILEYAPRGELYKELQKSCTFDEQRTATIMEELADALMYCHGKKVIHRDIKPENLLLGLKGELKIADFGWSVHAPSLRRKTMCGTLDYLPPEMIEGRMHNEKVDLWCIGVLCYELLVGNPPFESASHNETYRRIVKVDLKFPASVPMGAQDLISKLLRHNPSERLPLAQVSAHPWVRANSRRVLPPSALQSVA

Row | SMILES | IC50 (AuroraB (h)) | IC50 (PLK2 (h)) | IC50 (CDK1/CyclinB (h)) | IC50 (CDK4/CyclinD1 (h)) | pIC50 (H1299) | IC50 (MDA-MB-231) | IC50 (U87-MG) | pIC50 (HCT-116) | IC50 (A2780) | IC50 (PLK3 (h))
1 | O=C1NCc2cccc(c2)-c2ccnc(n2)Nc2cccc(c2)CN2C[C@@H](O)C[C@@H]12 [Compound 45] | > 10 µM | > 10 µM | 0.0708 µM | 0.933 µM | 5.93 | 6.76 µM | 0.912 µM | 6.53 | 1.66 µM | > 10 µM
2 | CN1CCC(NC(=O)c2ccc3cc2CN2CCC[C@H]2C(=O)NCc2cccc(c2)-c2ccnc(n2)N3)CC1 [Compound 47] | > 10 µM | > 10 µM | 2 µM | 1.2 µM | 5.02 | 5.13 µM | 7.08 µM | 5.61 | 3.72 µM | > 1 µM
3 | O=C1NCc2ccc(cc2)-c2ccnc(n2)Nc2ccc(N3CCOCC3)c(c2)CN2CCC[C@@H]12 [Compound 49] | > 10 µM | > 10 µM | > 10 µM | > 10 µM | < 5.00 | > 10 µM | 1.74 µM | < 5.00 | 4.07 µM | > 10 µM
4 | O=C1NCc2cccc(c2)-c2ccnc(n2)Nc2cc(ccc2Cl)CN2CCC[C@@H]12 [Compound 51] | > 10 µM | > 10 µM | > 10 µM | > 10 µM | < 5.00 | > 10 µM | > 10 µM | < 5.00 | > 10 µM | > 10 µM
5 | O=C1NCc2cccc(c2)-c2ccnc(n2)Nc2cc(ccc2Cl)CN2C[C@H](O)C[C@@H]12 [Compound 52] | > 10 µM | > 10 µM | > 10 µM | > 10 µM | < 5.00 | > 10 µM | > 10 µM | < 5.00 | > 10 µM | > 10 µM
6 | O=C1NCc2cccc(c2)-c2ccnc(n2)Nc2ccc(cc2)CN2CCC[C@@H]12 [Compound 54] | > 10 µM | > 10 µM | > 10 µM | 7.41 µM | < 5.00 | > 10 µM | > 10 µM | < 5.00 | > 10 µM | > 10 µM
7 | O=C1NCc2cccc(c2)-c2ccnc(n2)Nc2ccc(cc2)CN2C[C@H](O)C[C@@H]12 [Compound 55] | > 10 µM | > 10 µM | > 10 µM | > 10 µM | < 5.00 | > 10 µM | > 10 µM | < 5.00 | > 10 µM | > 10 µM
8 | O=C1NCc2ccc(cc2)-c2ccnc(n2)Nc2ccc(N3CCOCC3)c(c2)CN2C[C@H](O)C[C@@H]12 [Compound 56] | > 10 µM | > 10 µM | > 10 µM | > 10 µM | < 5.00 | > 10 µM | > 10 µM | < 5.00 | > 10 µM | > 10 µM
9 | O=C1NCc2cccc(c2)-c2ccnc(n2)Nc2ccccc2CN2CCC[C@@H]12 [Compound 57] | > 10 µM | > 10 µM | > 10 µM | > 10 µM | < 5.00 | > 10 µM | > 10 µM | < 5.00 | > 10 µM | > 1 µM
10 | CC(C)(C)O[C@@H]1C[C@H]2C(=O)NCc3cccc(c3)-c3ccnc(n3)Nc3ccccc3CN2C1 [Compound 58] | > 10 µM | > 10 µM | > 10 µM | > 10 µM | < 5.00 | > 10 µM | > 10 µM | < 5.00 | > 10 µM | > 10 µM
11 | COc1cc2cc(c1)Nc1nccc(n1)-c1ccc(cc1)CN(C)CCNC(=O)C1CCN(CC1)C2 [Compound 62] | > 10 µM | > 10 µM | > 10 µM | > 10 µM | < 5.00 | 9.12 µM | 6.92 µM | 5.56 | 5.89 µM | 9.77 µM
12 | CC(C)Nc1cc2cc(c1)Nc1nccc(n1)-c1ccc(cc1)CN(C)CCCNC(=O)C1CCN(CC1)C2 [Compound 65] | > 10 µM | > 10 µM | > 10 µM | > 10 µM | < 5.00 | > 10 µM | 7.24 µM | < 5.00 | > 10 µM | > 10 µM
13 | COc1cc2cc(c1)Nc1nccc(n1)-c1ccc(cc1)CN(C)CCCNC(=O)C1CCN(CC1)C2 [Compound 66] | > 10 µM | > 3.02 µM | > 10 µM | > 10 µM | < 5.00 | 8.32 µM | 2.88 µM | 5.99 | 6.31 µM | > 10 µM
14 | COc1cc2cc(c1)Nc1nccc(n1)-c1ccc(OC)c(c1)CN(C)CCNC(=O)C1CCN(CC1)C2 [Compound 67] | 5.13 µM | > 3.02 µM | > 10 µM | > 10 µM | < 5.00 | > 10 µM | > 10 µM | < 5.00 | > 10 µM | > 10 µM
15 | COc1cc2cc(c1)Nc1nccc(n1)-c1ccc(OC)c(c1)CN(C)CCCNC(=O)C1CCN(CC1)C2 [Compound 73] | > 10 µM | > 10 µM | > 10 µM | > 10 µM | < 5.00 | > 10 µM | 5.13 µM | 5.51 | > 10 µM | > 10 µM
16 | COc1ccc2cc1CN(C)CCNC(=O)C1CCN(CC1)Cc1cc(NCCc3ccccc3)cc(c1)Nc1nccc-2n1 [Compound 74] | > 10 µM | > 10 µM | > 10 µM | > 10 µM | < 5.00 | 5.89 µM | 3.98 µM | 5.33 | 3.02 µM | > 10 µM
17 | O=C1NCCOc2cccc(c2)-c2ccnc(n2)Nc2ccc(N3CCOCC3)c(c2)CN2CCC1CC2 [Compound 94] | > 10 µM | > 10 µM | > 10 µM | 3.63 µM | 5.09 | > 10 µM | > 10 µM | 5.04 | > 10 µM | > 10 µM
18 | O=C1NCc2cccc(c2)-c2ccnc(n2)Nc2ccc(N3CCOCC3)c(c2)CN2CCC1CC2 [Compound 95] | > 10 µM | > 10 µM | 7.24 µM | 1.29 µM | < 5.00 | > 10 µM | > 10 µM | < 5.00 | > 10 µM | > 10 µM
19 | C[C@@H]1NCCc2cccc(c2)-c2ccnc(n2)Nc2ccc(N3CCOCC3)c(c2)CNC1=O [Compound 100] | > 10 µM | > 10 µM | 0.151 µM | 0.2 µM | 5.53 | 3.47 µM | 0.603 µM | 6.14 | 3.02 µM | > 10 µM
20 | C[C@@H]1NCc2cccc(c2)-c2ccnc(n2)Nc2ccc(N3CCOCC3)c(c2)CNC1=O [Compound 101] | > 10 µM | > 10 µM | > 10 µM | 2.57 µM | 5.18 | 8.13 µM | 5.01 µM | 5.57 | 4.68 µM | > 10 µM
